Reference: ChEMBL document CHEMBL2311472, “Discovery and optimization of potent broad-spectrum arenavirus inhibitors derived from benzimidazole and related heterocycles” (Bioorg Med Chem Lett, 2013)

Columns and labels:
Lassa virus = assay: Antiviral activity against Lassa virus by pseudo-type antiviral assay; format: functional, organism-based; conditions: Mammarenavirus lassaense
Guanarito virus = assay: Antiviral activity against Guanarito virus; format: functional; conditions: Mammarenavirus guanaritoense
Junin virus = assay: Antiviral activity against Junin virus; format: functional, organism-based; conditions: Mammarenavirus juninense
Sabia virus = assay: Antiviral activity against Sabia virus; format: functional
Machupo mammarenavirus = assay: Antiviral activity against Machupo virus; format: functional; conditions: Mammarenavirus machupoense

| Compound | EC50 (Lassa virus) [nM] | other results |
| --- | --- | --- |
| CCOc1ccc(-n2c(C(=O)O)nc3cc(NCc4ccc(CC)cc4)ccc32)cc1 | 1.5 | – |
| CCc1ccc(CNc2cnc3c(c2)ncn3-c2ccc(NC(C)=O)cc2)cc1 | 11 | – |
| CCOc1ccc(-n2c(C)nc3cc(NCc4ccc(CC)cc4)ccc32)cc1 | 1.9 | – |
| CCOc1ccc(-n2c(N)nc3cc(NCc4ccc(CC)cc4)ccc32)cc1 | 29 | – |
| CCOc1ccc(-n2c(C(N)=O)nc3cc(NCc4ccc(CC)cc4)ccc32)cc1 | 9.2 | – |
| CCc1ccc(CNc2cnc3c(c2)ncn3-c2ccc(OCCCO)cc2)cc1 | 13 | – |
| CCOc1ccc(-n2cnc3cc(NCCCc4ccc(CC)cc4)cnc32)cc1 | 210 | – |
| CCOc1ccc(-n2cnc3nc(NCc4ccc(CC)cc4)ccc32)cc1 | 6.8 | – |
| CCOc1ccc(-n2cnc3cc(/N=C/c4ccc(CC)cc4)cnc32)cc1 | 4300 | – |
| CCOc1ccc(-n2cnc3cc(NCc4ccc(CC)cc4)cc(C(=O)O)c32)cc1 | > 50000 | – |
| CCOc1ccc(-n2cnc3cc(NCc4ccc(CC)cc4)cnc32)cc1CN | 58 | – |
| COc1ccc(-n2ncc3cc(NCc4ccc(C(C)C)cc4)ccc32)cc1 | 130 | – |
| CCOc1ccc(-n2cnc3cc(NCc4ccc(CC)cc4)cc(N)c32)cc1 | 620 | – |
| CCOc1ccc(-n2cnc3cc(NCCc4ccc(CC)cc4)cnc32)cc1 | 65 | – |
| CCOc1ccc(-n2c(C#N)nc3cc(NCc4ccc(CC)cc4)ccc32)cc1 | 1.6 | – |
| CCOc1ccc(-n2cnc3cc(NCc4ccc(CC)c(N(C)C)c4)cnc32)cc1 | 5.9 | – |
| CCOc1ccc(-n2cnc3cc(NCc4ccc(CC)cc4)cnc32)c(CN)c1 | 1500 | – |
| CCOc1ccc(-n2cnc3cc(NCc4ccc(CC)cc4)ccc32)cc1 | 1.5 | – |
| CCc1ccc(CNc2cnc3c(c2)ncn3-c2ccc(O)cc2)cc1 | 19 | – |

| Compound | EC50 (Lassa virus) [nM] | other results |
| --- | --- | --- |
| CCOc1ccc(-n2nnc3cc(NCc4ccc(CC)cc4)cnc32)cc1 | 0.87 | EC50 (Guanarito virus): 7.7 nM; EC50 (Junin virus): 14 nM; EC50 (Sabia virus): 93 nM; EC50 (Machupo mammarenavirus): 81 nM |
| CCOc1ccc(-n2ccc3cc(NCc4ccc(CC)cc4)ccc32)cc1 | 69 | – |
| CCOc1ccc(-n2c(C(=O)O)nc3cc(NCc4ccc(CC)cc4)cnc32)cc1 | 0.16 | – |
| CCOc1ccc(-n2ccc3cc(NCc4ccc(CC)cc4)cnc32)cc1 | 25 | – |
| CCOc1ccc(-n2cnc3cc(NCc4ccc(CC)cc4)cc(C(=O)OC)c32)cc1 | 220 | – |
| CCOc1ccc(-n2c(C(N)=O)nc3cc(NCc4ccc(CC)cc4)cnc32)cc1 | 4.4 | – |
| CCOc1ccc(-n2c(O)nc3cc(NCc4ccc(CC)cc4)ccc32)cc1 | 1800 | – |
| CCc1ccc(CNc2cnc3c(c2)ncn3-c2ccc(OCCN(C)C)cc2)cc1 | 80 | – |
| CCCc1nc2cc(NCc3ccc(CC)cc3)ccc2n1-c1ccc(OCC)cc1 | 170 | – |
| CCOc1ccc(-c2c[nH]c3cc(NCc4ccc(CC)cc4)ccc23)cc1 | 13 | EC50 (Junin virus): 12 nM; EC50 (Sabia virus): 3.9 nM; EC50 (Machupo mammarenavirus): 40 nM |
| CCOc1ccc(-n2cnc3cc(NCc4ccc(CC)c(CN)c4)cnc32)cc1 | 26 | – |
| CCOc1ccc(Cn2cnc3cc(NCc4ccc(CC)cc4)cnc32)cc1 | 1600 | – |
| CCOc1ccc(-n2cnc3cc(NCc4ccc(CC)cc4)cnc32)cc1 | 0.16 | EC50 (Guanarito virus): 3.5 nM; EC50 (Junin virus): 7.9 nM; EC50 (Sabia virus): 54 nM; EC50 (Machupo mammarenavirus): 28 nM |
| CCOc1ccc(-n2cnc3cc(NCc4ccc(CC)cc4)cnc32)nc1 | 0.98 | – |
| CCOc1ccc(-n2cnc3cc(NCc4ccc(CC)cc4)cnc32)cc1N(C)C | 250 | – |
| CCOc1ccc(-n2nnc3cc(NCc4ccc(CC)cc4)ccc32)cc1 | 6.1 | – |
| COc1ccc(-n2cnc3cc(NCc4ccc(C(C)C)cc4)ccc32)cc1 | 1.4 | EC50 (Guanarito virus): 0.44 nM; EC50 (Junin virus): 0.62 nM; EC50 (Sabia virus): 21 nM; EC50 (Machupo mammarenavirus): 3.1 nM |
| CCOc1ccc(-n2cnc3cc(NCc4ccc(CC)cc4)cnc32)cn1 | 9 | – |
| CCOc1ccc(-c2cnc3cc(NCc4ccc(CC)cc4)ccn23)cc1 | 9.3 | – |
